pEC50: −log10 of the molar value.
Target: T1, ΔF508-CFTR (Homo sapiens, UniProt P13569, DEL508-508)
T1 construct: expressed in transfected cells
Test: Membrane potential optical (FRET/VIPR) assay, identification of potentiator compounds
Assay type: cell-based
Conditions: Table 3, assay not given; for % Activity: relative efficacy
From the text: I) Membrane Potential Optical Methods for Assaying ΔF508-CFTR Modulation Properties of Compounds The optical membrane potential assay utilized voltage-sensitive FRET sensors described by Gonzalez and Tsien (See, Gonzalez, J. E. and R. Y. Tsien (1995) “Voltage sensing by fluorescence resonance energy transfer in single cells” Biophys J 69(4): 1272-80, and Gonzalez, J. E. and R. Y. Tsien (1997) “Improved indicators of cell membrane potential that use fluorescence resonance energy transfer” Chem Biol 4(4): 269-77) in combination with instrumentation for measuring fluorescence changes such as the Voltage/Ion Probe Reader (VIPR) (See, […]. Oades, et al. (1999) “Cell-based assays and instrumentation for screening ion-channel targets” Drug Discov Today 4(9): 431-439). These voltage sensitive assays are based on the change in fluorescence resonant energy transfer (FRET) between the membrane-soluble, voltage-sensitive dye, DiSBAC2(3), and a fluorescent phospholipid, CC2-DMPE, which is attached to the outer leaflet of the plasma membrane and acts as a FRET donor. Changes in membrane potential (Vm) cause the negatively charged DiSBAC2(3) to redistribute across the plasma membrane and the amount of energy transfer from CC2-DMPE changes accordingly. The changes in fluorescence emission were monitored using VIPR which is an integrated liquid handler and fluorescent detector designed to conduct cell-based screens in 96- or 384-well microtiter plates. To identify potentiators of ΔF508-CFTR, a double-addition HTS assay format was developed. During the first addition, a Cl^--free medium with or without test compound was added to each well. […] (in mM) NaCl 160, KCl 4.5, CaCl2 2, MgCl2 1, HEPES 10, pH 7.4 with NaOH. • Chloride-free bath solution: Chloride salts in Bath Solution #1 are substituted with gluconate salts. • CC2-DMPE: Prepared as a 10 mM stock solution in DMSO and stored at -20° C. • DiSBAC2(3): Prepared as a 10 mM stock in DMSO and stored at -20° C. NIH3T3 mouse fibroblasts stably expressing ΔF508-CFTR are used for optical measurements of membrane potential. […] For all optical assays, the cells were seeded at 30,000/well in 384-well matrigel-coated plates and cultured for 2 hrs at 37° C. before culturing at 27° C. for 24 hrs. for the potentiator assay.

T1 sequence (P13569 with tags, fused parts or gaps DEL508-508): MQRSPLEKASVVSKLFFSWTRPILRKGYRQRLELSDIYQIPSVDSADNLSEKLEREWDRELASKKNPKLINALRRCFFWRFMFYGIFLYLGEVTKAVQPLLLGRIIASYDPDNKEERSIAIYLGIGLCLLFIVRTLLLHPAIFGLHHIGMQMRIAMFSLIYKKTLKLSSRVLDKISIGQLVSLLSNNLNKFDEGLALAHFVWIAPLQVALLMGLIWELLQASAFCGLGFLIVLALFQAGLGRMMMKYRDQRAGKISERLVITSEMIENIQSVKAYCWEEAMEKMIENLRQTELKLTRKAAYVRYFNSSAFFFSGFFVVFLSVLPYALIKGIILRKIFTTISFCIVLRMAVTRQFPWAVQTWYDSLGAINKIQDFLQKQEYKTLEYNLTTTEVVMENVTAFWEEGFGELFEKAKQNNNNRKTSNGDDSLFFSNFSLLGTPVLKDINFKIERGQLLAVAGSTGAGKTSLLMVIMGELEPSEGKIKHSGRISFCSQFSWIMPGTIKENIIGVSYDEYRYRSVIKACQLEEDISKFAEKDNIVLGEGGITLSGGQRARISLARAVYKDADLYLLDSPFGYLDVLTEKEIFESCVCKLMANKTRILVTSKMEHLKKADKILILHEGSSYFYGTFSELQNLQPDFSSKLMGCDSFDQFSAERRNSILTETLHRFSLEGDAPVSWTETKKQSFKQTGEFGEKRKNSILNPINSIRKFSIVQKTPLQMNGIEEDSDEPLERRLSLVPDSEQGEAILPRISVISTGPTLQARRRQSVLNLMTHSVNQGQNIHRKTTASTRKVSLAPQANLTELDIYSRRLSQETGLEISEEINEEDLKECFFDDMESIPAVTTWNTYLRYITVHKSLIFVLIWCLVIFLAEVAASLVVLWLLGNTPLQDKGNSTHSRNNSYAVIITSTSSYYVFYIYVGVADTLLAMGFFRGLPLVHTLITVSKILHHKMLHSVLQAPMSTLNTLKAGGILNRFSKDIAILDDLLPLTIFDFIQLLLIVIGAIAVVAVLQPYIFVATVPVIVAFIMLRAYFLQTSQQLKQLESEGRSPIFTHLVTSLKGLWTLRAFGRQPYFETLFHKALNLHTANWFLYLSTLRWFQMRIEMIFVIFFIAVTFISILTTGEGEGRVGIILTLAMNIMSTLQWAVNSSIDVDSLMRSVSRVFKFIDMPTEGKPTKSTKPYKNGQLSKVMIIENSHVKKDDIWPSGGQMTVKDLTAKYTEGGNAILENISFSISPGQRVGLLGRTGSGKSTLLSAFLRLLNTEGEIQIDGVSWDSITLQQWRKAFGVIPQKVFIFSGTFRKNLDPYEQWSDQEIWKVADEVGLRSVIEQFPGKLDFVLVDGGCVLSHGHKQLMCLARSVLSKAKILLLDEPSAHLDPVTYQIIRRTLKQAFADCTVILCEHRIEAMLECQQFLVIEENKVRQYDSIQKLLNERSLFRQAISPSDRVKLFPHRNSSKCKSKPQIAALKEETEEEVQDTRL

SMILES | pEC50 | % Activity
COc1ccc(Cl)cc1-c1cc2cc[nH]c2cc1NC(=O)c1c[nH]c2ccccc2c1=O [Compound 1, N-[5-(5-chloro-2-methoxy-phenyl)-1H-indol-6-yl]-4-oxo-1H-quinoline-3-carboxamide] | > 5.00 | ++ (between 25% to 100%)
COc1cc(NC(=O)c2c[nH]c3ccccc3c2=O)ccc1C(C)(C)C [Compound 2, N-(3-methoxy-4-tert-butyl-phenyl)-4-oxo-1H-quinoline-3-carboxamide] | > 5.00 | ++ (between 25% to 100%)
COc1ccccc1Oc1ccc(C(F)(F)F)cc1NC(=O)c1c[nH]c2ccccc2c1=O [Compound 3, N-[2-(2-methoxyphenoxy)-5-(trifluoromethyl)phenyl]-4-oxo-1H-quinoline-3-carboxamide] | > 5.00 | ++ (between 25% to 100%)
O=C(Nc1ccccc1N1CCOCC1)c1c[nH]c2ccccc2c1=O [Compound 4, N-(2-morpholinophenyl)-4-oxo-1H-quinoline-3-carboxamide] | > 5.00 | ++ (between 25% to 100%)
CC(C)(CO)c1ccc(NC(=O)c2c[nH]c3ccccc3c2=O)cc1 [Compound 5, N-[4-(2-hydroxy-1,1-dimethyl-ethyl)phenyl]-4-oxo-1H-quinoline-3-carboxamide] | 4.60 to 5.00 | ++ (between 25% to 100%)
CC(C)(C)c1ccc(NC(=O)c2c[nH]c3ccccc3c2=O)cc1CO [Compound 6, N-[3-(hydroxymethyl)-4-tert-butyl-phenyl]-4-oxo-1H-quinoline-3-carboxamide] | > 5.00 | +++ (>100%)
CCOc1cc(NC(=O)c2c[nH]c3ccccc3c2=O)c(OCC)cc1NC(=O)c1ccccc1 [Compound 7, N-(4-benzoylamino-2,5-diethoxy-phenyl)-4-oxo-1H-quinoline-3-carboxamide] | 4.22 to 4.60 | + (<25%)
CCc1ccc(NC(=O)c2c[nH]c3ccccc3c2=O)cc1N [Compound 8, N-(3-amino-4-ethyl-phenyl)-4-oxo-1H-quinoline-3-carboxamide] | > 5.00 | ++ (between 25% to 100%)
NS(=O)(=O)c1cccc(NC(=O)c2c[nH]c3ccccc3c2=O)c1 [Compound 9, 4-oxo-N-(3-sulfamoylphenyl)-1H-quinoline-3-carboxamide] | 4.22 to 4.60 | + (<25%)
O=C(Nc1ccc2c(c1)NCCCC2)c1c[nH]c2ccccc2c1=O [Compound 10, 1,4-dihydro-N-(2,3,4,5-tetrahydro-1H-benzo[b]azepin-8-yl)-4-oxoquinoline-3-carboxamide] | > 5.00 | ++ (between 25% to 100%)
O=C(Nc1ccccc1-c1ccccc1C(F)(F)F)c1c[nH]c2ccccc2c1=O [Compound 11, 4-oxo-N-[2-[2-(trifluoromethyl)phenyl]phenyl]-1H-quinoline-3-carboxamide] | > 5.00 | ++ (between 25% to 100%)
CN(C)c1ccc(-c2ccccc2NC(=O)c2c[nH]c3ccccc3c2=O)cc1 [Compound 12, N-[2-(4-dimethylaminophenyl)phenyl]-4-oxo-1H-quinoline-3-carboxamide] | > 5.00 | ++ (between 25% to 100%)
CC(C)(C)c1ccc(NC(=O)c2c[nH]c3ccccc3c2=O)cc1C#N [Compound 13, N-(3-cyano-4-tert-butyl-phenyl)-4-oxo-1H-quinoline-3-carboxamide] | > 5.00 | ++ (between 25% to 100%)
COC(=O)Nc1cc(NC(=O)c2c[nH]c3ccccc3c2=O)ccc1C(C)(C)C [Compound 14, [5-[(4-oxo-1H-quinolin-3-yl)carbonylamino]-2-tert-butyl-phenyl]aminoformic acid methyl ester] | > 5.00 | ++ (between 25% to 100%)
COc1ncccc1NC(=O)c1c[nH]c2ccccc2c1=O [Compound 15, N-(2-methoxy-3-pyridyl)-4-oxo-1H-quinoline-3-carboxamide] | 4.60 to 5.00 | ++ (between 25% to 100%)
CCCc1ccccc1NC(=O)c1c[nH]c2ccccc2c1=O [Compound 16, 4-oxo-N-(2-propylphenyl)-1H-quinoline-3-carboxamide] | > 5.00 | ++ (between 25% to 100%)

SMILES | pEC50 | % Activity
CCCOc1ccc(N)cc1NC(=O)c1c[nH]c2ccccc2c1=O [Compound 17, N-(5-Amino-2-propoxy-phenyl)-4-oxo-1H-quinoline-3-carboxamide] | > 5.00 | ++ (between 25% to 100%)
O=C(Nc1cccc2c1Cc1ccccc1-2)c1c[nH]c2ccccc2c1=O [Compound 18, N-(9H-fluoren-1-yl)-4-oxo-1H-quinoline-3-carboxamide] | > 5.00 | ++ (between 25% to 100%)
O=C(Nc1ccc2ccccc2n1)c1c[nH]c2ccccc2c1=O [Compound 19, 4-oxo-N-(2-quinolyl)-1H-quinoline-3-carboxamide] | 4.60 to 5.00 | + (<25%)
Cc1ccccc1Oc1ccccc1NC(=O)c1c[nH]c2ccccc2c1=O [Compound 20, N-[2-(2-methylphenoxy)phenyl]-4-oxo-1H-quinoline-3-carboxamide] | > 5.00 | ++ (between 25% to 100%)
O=C(Nc1ccc(S(=O)(=O)Nc2ccccn2)cc1)c1c[nH]c2ccccc2c1=O [Compound 21, 4-oxo-N-[4-(2-pyridylsulfamoyl)phenyl]-1H-quinoline-3-carboxamide] | 4.22 to 4.60 | + (<25%)
O=C(Nc1ccc2c(c1)NCC21CC1)c1c[nH]c2ccccc2c1=O [Compound 22, 4-Oxo-1,4-dihydro-quinoline-3-carboxylic acid N-(1′,2′-dihydrospiro[cyclopropane-1,3′-[3H]indol]-6′-yl)-amide] | 4.60 to 5.00 | ++ (between 25% to 100%)
CCOc1ccccc1-c1cc(C(C)(C)C)c(O)cc1NC(=O)c1c[nH]c2ccccc2c1=O [Compound 23, N-[2-(2-ethoxyphenyl)-5-hydroxy-4-tert-butyl-phenyl]-4-oxo-1H-quinoline-3-carboxamide] | > 5.00 | ++ (between 25% to 100%)
O=C(Nc1cccc(S(=O)(=O)N2CCCC2)c1)c1c[nH]c2ccccc2c1=O [Compound 24, 4-oxo-N-(3-pyrrolidin-1-ylsulfonylphenyl)-1H-quinoline-3-carboxamide] | 4.22 to 4.60 | + (<25%)
CC(=O)Nc1cccc(-c2ccccc2NC(=O)c2c[nH]c3ccccc3c2=O)c1 [Compound 25, N-[2-(3-acetylaminophenyl)phenyl]-4-oxo-1H-quinoline-3-carboxamide] | – | ++ (between 25% to 100%)
O=C(Nc1ccccc1N1CCCCC1)c1c[nH]c2ccccc2c1=O [Compound 26, 4-oxo-N-[2-(1-piperidyl)phenyl]-1H-quinoline-3-carboxamide] | > 5.00 | ++ (between 25% to 100%)
COCCOC(=O)NCC(C)(C)c1ccc(NC(=O)c2c[nH]c3ccccc3c2=O)cc1 [Compound 28, [2-methyl-2-[4-[(4-oxo-1H-quinolin-3-yl)carbonylamino]phenyl]-propyl]aminoformic acid 2-methoxyethyl ester] | 4.60 to 5.00 | ++ (between 25% to 100%)
CC(C)n1cc(C(=O)Nc2ccccc2)c(=O)c2ccccc21 [Compound 29, 1-isopropyl-4-oxo-N-phenyl-1H-quinoline-3-carboxamide] | 4.60 to 5.00 | ++ (between 25% to 100%)
COC(=O)Nc1cc(NC(=O)c2c[nH]c3ccccc3c2=O)ccc1C(C)C [Compound 30, [2-isopropyl-5-[(4-oxo-1H-quinolin-3-yl)carbonylamino]phenyl]aminoformic acid methyl ester] | > 5.00 | ++ (between 25% to 100%)
Cc1ccc(NC(=O)c2c[nH]c3ccccc3c2=O)cc1 [Compound 31, 4-oxo-N-(p-tolyl)-1H-quinoline-3-carboxamide] | > 5.00 | ++ (between 25% to 100%)
O=C(Nc1cc2[nH]ccc2cc1Cl)c1c[nH]c2ccccc2c1=O [Compound 32, N-(5-chloro-1H-indol-6-yl)-4-oxo-1H-quinoline-3-carboxamide] | > 5.00 | ++ (between 25% to 100%)
O=C(Nc1ccc2cc[nH]c2c1)c1c[nH]c2ccccc2c1=O [Compound 33, N-(1H-indol-6-yl)-4-oxo-1H-quinoline-3-carboxamide] | > 5.00 | ++ (between 25% to 100%)

Source: patent US8614327B2 (Vertex Pharmaceuticals Incorporated, priority 2004, dated 2013)
